Data taken from article PMC9061999, “Application of the Adverse Outcome Pathway Concept to In Vitro Nephrotoxicity Assessment: Kidney Injury due to Receptor-Mediated Endocytosis and Lysosomal Overload as a Case Study” (Frontiers in Toxicology, 2022).

Assays:
NRK-52E cells [1] = test: CellTiter-Glo cytotoxicity assay (KE3); format: cell-based, rat; settings: for BMC10, KE3: in vitro POD from KE dose-response, cell viability CellTiter-Glo, NRK-52E, 24 h treatment, n = 3; for MOE, KE3: margin of exposure: BMC10 in NRK-52E vs rat plasma/serum concentration (cmax or css)
Experimental: Cells were plated into 96-well tissue culture plates (10,000 cells per well) and were allowed to grow for 48 h (NRK-52E) respectively 10 d (RPTEC/TERT1) prior to 24 h treatment with model stressors. Stock solution for each compound (2000 µM) was prepared in growth medium and serial dilutions (1:1) were made before each experiment. At the end of the 24 h treatment, cell viability was measured using the CellTiter-Glo® assay (Promega). CellTiter-Glo® reagents and buffer were mixed under light-protected conditions and 100 µL CellTiter-Glo® solution was added directly to each well followed by 2 min incubation on an orbital shaker and 10 min incubation at room temperature in the dark to stabilize the luminescence signal. The suspension was mixed via pipetting and 50 µL were transferred into white 96-well plates (PerkinElmer Inc.). The luminescence signal was measured on a multiplate reader (Mithras LB 940; Berthold). Each assay was performed in three independent experiments carried out in triplicates.

NRK-52E cells [2] = test: LC-MS/MS analysis of intracellular concentration; format: in vitro ADME, rat; settings: for Intracellular accumulation in NRK-52E compared to RPTEC-TERT1 cells: 24 h; for Intracellular concentration after recovery compared to the 24 h time-point: 34 µM for 24 h, then 24 h in fresh medium; for Time course of intracellular concentration: within the 24 h treatment period (1-2 min, 1, 3, 6, 24 h), n = 3
Experimental: NRK-52E and RPTEC/TERT1 cells were seeded in 12-well plates (120,000 cells per well) and were allowed to grow for 48 h (NRK-52E) or 10 d (RPTEC/TERT1) until they reached 100% confluence. After cells achieved 100% confluence, the supernatant was aspirated, and the cells were washed twice with 1 x PBS. Cells were treated with polymyxins at a final concentration of 34 µM for 24 h. Samples were taken at five different treatment time points (1–2 min, 1, 3, 6, and 24 h). In addition, a recovery sample was taken 24 h after the end of the 24 h treatment period. To this end, the supernatant was aspirated after 24 h treatment and the cells were washed three times with 1 x PBS to remove polymyxin B or colistin residues. Fresh growth medium was added, and the cells were incubated for another 24 h. At the end of each experiment, the cells were washed 3 times with 1 x PBS and trypsinized by adding 200 µL of trypsin. Detached cells were washed with 1,000 µL 1 x PBS and the cells were transferred to LoBind™ tubes (Eppendorf). Cell count was determined using a Fuchs-Rosenthal counting chamber (Hartenstein). Cells were centrifuged for 5 min at 4°C at 10.000 rpm and the supernatant was aspirated. Cells were resuspended in 1,000 µL 1 x PBS and centrifuged for 5 min at 4°C at 10.000 rpm. After centrifugation, the supernatant was aspirated, and the cell pellet was resuspended in 250 µL ammonium acetate buffer (10 mM) and 250 µL of 30% methanol with 1% acetic acid containing polymyxin B respectively colistin as an internal standard. Cells were sonicated for 10 min and centrifuged for 5 min at 4°C at 14.000 rpm. The supernatant was transferred quantitatively into new LoBind™ tubes (Eppendorf) and dried in a centrifugal vacuum concentrator for 2–3 h. To measure compound plastic binding, the empty 12 well plates were washed with 1.5 ml acetonitrile on an orbital shaker for 2 h and supernatant was collected. For sample purification via solid phase extraction, SPE cartridges Strata-X 33 µm polymeric reversed phase, 10 mg/1 ml (Phenomenex) were used. In the conditioning step the cartridges were rinsed with 200 µL methanol (100%) and subsequently with 200 µL ddH2O to activate the sorbent bed. The dried samples were dissolved in 200 µL 1% acetic acid and transferred onto the SPE cartridge. The SPE cartridge were rinsed once with 200 µL 1% acetic acid. Impurities were removed by rinsing the cartridge once with 200 µL 10% methanol. A fresh LoBind™ tube (Eppendorf) was placed under the SPE cartridge to eluate the samples by rinsing twice with 200 µL 90% methanol containing 1% acetic acid. The samples were dried in a centrifugal vacuum concentrator for 2–3 h. All samples were stored at −20°C until LC-MS/MS analysis.
A triple quadrupole mass spectrometer equipped with a Turbo-Ion® Spray source (QTrap API 2000; AB Sciex Instruments) was used for analyses. The mass spectrometer was coupled to an Agilent 1100 HPLC system consisting of a binary pump system, a vacuum degasser and an autosampler (Agilent 1,100). Chromatographic separation was performed at 40°C with a column oven (Knauer) on a Synergi Hydro-RP column (2 mm × 150 mm, 4 μm, 80 Å; Phenomenex) coupled to a precolumn (SecurityGuard™ Cartridges, AQ C18 4 × 2.0 mm) using a binary step gradient at a flow rate of 0.2 ml/min with the following gradient: 0 min 100% A, 15 min 0% A, 20 min 0% A, 21 min 100% A, and 30 min 100% A. Mobile phase consisted of 3% acetonitrile containing 1% acetic acid and (solvent A) and 97% acetonitrile containing 1% acetic acid (solvent B). The injection volume was set to 10 µL and the total analysis time was 30 min. Following chromatographic separation, multiple ion monitoring was used to detect the triply charged, twice charged, and single charged ions of polymyxins (Table 1). […]

Substance	BMC10, KE3 (NRK-52E cells [1])	MOE, KE3 (NRK-52E cells [1])	Intracellular accumulation in NRK-52E compared to RPTEC-TERT1 cells (NRK-52E cells [2]; 34 µM)	Intracellular concentration compared to polymyxin B (NRK-52E cells [2]; NRK-52E, 34 µM)	Intracellular concentration after recovery compared to the 24 h time-point (NRK-52E cells [2]; NRK-52E)	Time course of intracellular concentration (NRK-52E cells [2]; NRK-52E, 34 µM)
Colistin	135.5 µM	13.0 – 26.6	significantly lower in NRK-52E cells	lower intracellular concentrations	declined during the 24 h off-dose recovery period	continuous rise in the intracellular concentration
Polymyxin B	19.9 µM	2.8	significantly lower in NRK-52E cells		declined during the 24 h off-dose recovery period	continuous rise in the intracellular concentration
